The values that follow come from US7518005B2, “Water-soluble anti-dandruff compounds and compositions thereof” (Galaxy Surfactants Limited, priority 2005, dated 2009).

The subject of series [1] is M. furfur. The experiment in a line: Zone of inhibition of M. furfur in SLES, comparison with Undecylenic amido propyl betain (Example 7). The format is cell-based. An excerpt: Undecylenic amido propyl betain is a reported anti-dandruff product, so Undecylenic amidopropyl dimethyl Hydroxy ethyl ammonium undecylenate was compared. Carried out of zone of inhibition of M. furfur against 1, 2%, 5% & 7% Undecylenic amido propyl betain in SLES and compared it with Undecylenic amido propyl dimethyl Hydroxy ethyl ammonium undecylenate

Series [2] has as its system M. furfur. Put plainly: Zone of inhibition against M. furfur, comparison with other known anti-dandruff agents (Example 5). The format is cell-based. From the text:
M. furfur is one of the microorganism, which causes dandruff Method of Analysis: Zone of Inhibition Principle: Larger the zone of inhibition greater is the anti-dandruff activity.

A short description of series [3]: Viscosity booster effect in shampoo formulation. The conditions noted are these: 15% active sodium lauryl ether sulfate, 2% booster.

Turning to `C=CCCCCCCCCC(=O)NCCC[N+](C)(C)CC(=O)[O-]` [Undecylenic amidopropyl betaine], the Comments result is “Less” with M. furfur [1] (1%), “Less” in the series with M. furfur [1] (2%), “Less” in the series on M. furfur [1] (5%) and “Effective” in the series on M. furfur [1] (7%). Also, the “Zone of inhibition in mm” value in the series with M. furfur [1] (1%) is listed as 3 mm; in the series on M. furfur [1] (2%), 6 mm; with M. furfur [1] (5%) it was 6 mm; in the series on M. furfur [1] (7%), 8 mm.

In the case of `C=CCCCCCCCCC(=O)NCCC[N+](C)(C)CCOCCO.[Cl-]` [Undecylenic amidopropyl dimethyl Hydroxy ethoxy ethyl ammonium chloride], the Comments entry is reported as “Less” in the series on M. furfur [2] (Concent. 0.5%), “Less” in the series on M. furfur [2] (Concent. 1%), “Less” with M. furfur [2] (Concent. 1.5%) and “Effective” with M. furfur [2] (Concent. 2%). For the same compound, the “Zone of inhibition in mm” value with M. furfur [2] (Concent. 0.5%) came to 2 mm; in the series on M. furfur [2] (Concent. 1%), 3 mm; in the series on M. furfur [2] (Concent. 1.5%), 6 mm; with M. furfur [2] (Concent. 2%), 8 mm.

In the case of `C=CCCCCCCCCC(=O)NCCO` [Undecylenic mono ethanolamide], the Comments result with M. furfur [2] (Concent. 0.5%) is reported as “Not effective”; in the series on M. furfur [2] (Concent. 1%), “Less”; in the series on M. furfur [2] (Concent. 1.5%) it was “Less”; in the series with M. furfur [2] (Concent. 2%), “Less”. Besides, the “Zone of inhibition in mm” value with M. furfur [2] (Concent. 0.5%) is listed as 0 mm; with M. furfur [2] (Concent. 1%), 2 mm; in the series on M. furfur [2] (Concent. 1.5%), 4 mm; in the series with M. furfur [2] (Concent. 2%), 6 mm.

In the case of Cocomonoethanolamide [CMEA], the “Viscosity in cps at 28° C.” value in series [3] (Sodium chloride 0.5%) came to 55 cps; in series [3] (Sodium chloride 1.0%) it was 600 cps; in series [3] (Sodium chloride 1.5%), 3000 cps; in series [3] (Sodium chloride 2.0%), 11000 cps; in series [3] (Sodium chloride 2.5%), 17000 cps.

Regarding “Undecylenic monoethanol amido sulfosuccinate”, the Comments result in the series with M. furfur [2] (Concent. 0.5%), in the series with M. furfur [2] (Concent. 1%), in the series with M. furfur [2] (Concent. 1.5%) and in the series on M. furfur [2] (Concent. 2%) was “Not effective” throughout. For the same compound, the “Zone of inhibition in mm” value with M. furfur [2] (Concent. 0.5%), in the series on M. furfur [2] (Concent. 1%), with M. furfur [2] (Concent. 1.5%) and in the series on M. furfur [2] (Concent. 2%) was 0 mm each time.
